Experimental data from patent publication US9732075B2, “Benzimidazole-proline derivatives” (IDORSIA PHARMACEUTICALS LTD, priority 2012, dated 2017).

Experiments:
human orexin-2 receptor = human orexin-2 receptor (Homo sapiens (Human), UniProt O43614); test: In vitro assay: intracellular calcium measurements (FLIPR), antagonistic activity; type: cell-based; conditions: CHO cells expressing human orexin-2 receptor, orexin-A agonist, geometric mean, read-out: IC50 Ox2
Procedure, shortened: (§1)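 Orexin-A-evoked calcium rise (3 nM final, roughly EC70) was recorded with fluo-4 in recombinant CHO cells, human receptor subtype 1 or 2.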

human orexin-1 receptor = human orexin-1 receptor (Homo sapiens (Human), UniProt O43613); test: as above; type: cell-based; conditions: CHO cells expressing human orexin-1 receptor, orexin-A agonist, geometric mean, read-out: IC50 Ox1
human orexin-1 receptor, sequence (O43613 whole entry): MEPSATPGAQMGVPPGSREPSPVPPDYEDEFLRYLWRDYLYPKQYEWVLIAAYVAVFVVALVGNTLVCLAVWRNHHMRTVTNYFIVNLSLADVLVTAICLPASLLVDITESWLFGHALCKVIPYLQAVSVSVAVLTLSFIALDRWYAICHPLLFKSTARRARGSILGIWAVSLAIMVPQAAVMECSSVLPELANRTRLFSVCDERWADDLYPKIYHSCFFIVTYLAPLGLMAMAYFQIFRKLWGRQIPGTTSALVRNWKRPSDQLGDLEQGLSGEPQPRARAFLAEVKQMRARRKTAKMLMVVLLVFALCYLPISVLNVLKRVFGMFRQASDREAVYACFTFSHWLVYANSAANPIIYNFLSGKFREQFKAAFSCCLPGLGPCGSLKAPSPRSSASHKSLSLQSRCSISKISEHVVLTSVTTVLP
Procedure, shortened: as §1

human orexin-2 receptor, sequence (O43614 whole entry): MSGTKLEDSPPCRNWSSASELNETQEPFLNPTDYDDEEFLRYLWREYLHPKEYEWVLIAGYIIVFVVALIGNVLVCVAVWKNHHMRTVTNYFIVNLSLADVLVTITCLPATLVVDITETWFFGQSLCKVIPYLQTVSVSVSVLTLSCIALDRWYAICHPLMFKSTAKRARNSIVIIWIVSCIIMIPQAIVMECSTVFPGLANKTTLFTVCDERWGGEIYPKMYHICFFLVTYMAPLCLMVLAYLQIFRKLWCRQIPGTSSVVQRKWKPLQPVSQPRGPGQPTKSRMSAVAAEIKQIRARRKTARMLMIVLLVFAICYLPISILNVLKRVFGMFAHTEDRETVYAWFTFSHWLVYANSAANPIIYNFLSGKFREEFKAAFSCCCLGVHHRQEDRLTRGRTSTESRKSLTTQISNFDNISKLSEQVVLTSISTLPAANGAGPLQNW

Compound	IC50 (human orexin-2 receptor)	IC50 (human orexin-1 receptor)
CSc1ccc2nc([C@@H]3CCCN3C(=O)c3nc(C)sc3-c3cccc(F)c3)[nH]c2c1 [Ex. 1.39]	73 nM	157 nM
(S)-(2-(6-methoxy-1H-benzo[d]imidazol-2-yl)pyrrolidin-1-yl)(5-methyl-2-(2H-1,2,3-triazol-2-yl)phenyl)methanone [Example 1.1]	108 nM	1500 nM
CO[C@@H]1C[C@@H](c2nc3c(C)c(Cl)ccc3[nH]2)N(C(=O)c2nc(C)sc2-c2ccccc2)C1 [Ex. 3.6]	4 nM	5 nM
Cc1cc2[nH]c([C@@H]3[C@@H](C)CCN3C(=O)c3cc(Cl)ccc3-n3nccn3)nc2cc1Cl [Ex. 4.71]	133 nM	7 nM
C=C1CC(c2nc3cc(SC)ccc3[nH]2)N(C(=O)c2nc(C3CC3)sc2-c2cccc(C)c2)C1 (stereo not shown) [Ex. 6.88]	15 nM	20 nM
C=C1CC(c2nc3c(C)cc(C)cc3[nH]2)N(C(=O)c2nc(C3CC3)sc2-c2cccc(C)c2)C1 (stereo not shown) [Ex. 6.91]	1 nM	2 nM
COc1cc2nc([C@]3(C)CCCN3C(=O)c3ccccc3-n3nccn3)[nH]c2cc1OC [Ex. 5.73]	57 nM	98 nM
Cc1nc(C(=O)N2CC[C@H](C)[C@H]2c2nc3cc(C)c(C)cc3[nH]2)c(-c2cccc(Cl)c2)s1 [Ex. 4.10]	833 nM	2 nM
Cc1ccc(-c2cccc(C(F)(F)F)c2)c(C(=O)N2CCC[C@@]2(C)c2nc3cc(C(F)(F)F)c(Cl)cc3[nH]2)c1 [Ex. 5.155]	249 nM	134 nM
CSc1ccc2nc([C@@H]3CCCN3C(=O)c3cc(C)ccc3-n3nccn3)[nH]c2c1 [Ex. 1.17]	8 nM	97 nM
C=C1C[C@@H](c2nc3ccc(OC)cc3[nH]2)N(C(=O)c2nc(C)sc2-c2ccc(C)c(C)c2)C1 [Ex. 6.46]	4 nM	30 nM
Cc1nc(C(=O)N2CC[C@H](C)[C@H]2c2nc3c(C(F)(F)F)cccc3[nH]2)c(-c2ccc(Br)cc2)s1 [Ex. 4.151]	185 nM	5 nM
C=C1C[C@@H](c2nc3cc(OC)ccc3[nH]2)N(C(=O)c2cnc(C)nc2-c2ccccc2)C1 [Ex. 6.16]	151 nM	307 nM
COc1cc2nc([C@@H]3[C@@H](C)CCN3C(=O)c3c(C)cccc3-n3nccn3)[nH]c2cc1OC [Ex. 4.48]	1320 nM	391 nM
C=C1C[C@@H](c2nc3ccc(Cl)c(C)c3[nH]2)N(C(=O)c2cc(C)ccc2-n2cccn2)C1 [Ex. 6.134]	10 nM	75 nM
COCCn1c([C@]2(C)CCCN2C(=O)c2cc(C)ccc2-c2cccc(F)c2)nc2cc(C)c(C)cc21 [Ex. 7.36]	115 nM	16 nM
Cc1ccc(C(=O)N2CCC[C@@]2(C)c2nc3cc(OC(F)(F)F)ccc3[nH]2)c(-n2nccn2)c1 [Ex. 5.238]	91 nM	23 nM
Cc1ccc(-c2ccccc2C(=O)N2CC[C@H](C)[C@H]2c2nc3cc(C)c(C)cc3[nH]2)cc1 [Ex. 4.86]	352 nM	7 nM
C=C1C[C@@H](c2nc3ccc(Cl)c(C)c3[nH]2)N(C(=O)c2nc(C)sc2-c2ccc(Cl)c(Cl)c2)C1 [Ex. 6.126]	0.8 nM	3 nM
CO[C@H]1CN(C(=O)c2ccccc2-n2cccn2)C(C)(c2nc3c(C)c(Cl)ccc3[nH]2)C1 (stereo partly shown) [Ex. 3.54]	44 nM	52 nM

Compound	IC50 (human orexin-2 receptor)	IC50 (human orexin-1 receptor)
CO[C@@H]1C[C@@H](c2nc3ccc(Cl)c(C)c3[nH]2)N(C(=O)c2ccc(C)cc2-n2nccn2)C1 [Ex. 3.15]	4 nM	96 nM
COc1ccc2nc([C@@H]3CCCN3C(=O)c3cc(OC)c(OC)cc3-n3nccn3)[nH]c2c1 [Ex. 1.162]	27 nM	458 nM
COc1cc2nc([C@@H]3[C@@H](C)CCN3C(=O)c3ccccc3-n3cccn3)[nH]c2cc1OC [Ex. 4.56]	2620 nM	283 nM
Cc1c(Cl)ccc2[nH]c([C@@H]3[C@@H](C)CCN3C(=O)c3ccccc3-n3nccn3)nc12 [Ex. 4.59]	67 nM	6 nM
Cc1cc(-c2nc(C(=O)N3CCC[C@@]3(C)c3nc4c(C)c(Cl)ccc4[nH]3)c(-c3ccc(F)cc3)s2)ccc1F [Ex. 5.252]	1640 nM	20 nM
COc1ccc2[nH]c([C@@H]3CCCN3C(=O)c3cc(C)ccc3-n3nccn3)nc2c1 [Ex. 1.2]	7 nM	349 nM
Cc1nc(C(=O)N2CCC[C@H]2c2nc3c(C)c(Cl)ccc3[nH]2)c(-c2ccccc2)s1 [Ex. 1.145]	7 nM	3 nM
Cc1nc(C(=O)N2CCC[C@@]2(C)c2nc3cc(OC(F)(F)F)ccc3[nH]2)c(-c2cc(F)cc(F)c2)s1 [Ex. 5.246]	533 nM	28 nM
Cc1cccc(-c2sc(C)nc2C(=O)N2CCC[C@@]2(C)c2nc3ccc(F)c(F)c3[nH]2)c1 [Ex. 5.210]	27 nM	3 nM
Cc1ccc(-c2ccccc2C)c(C(=O)N2CCC[C@@]2(C)c2nc3cc(C(F)(F)F)ccc3[nH]2)c1 [Ex. 5.186]	294 nM	120 nM
CSc1cccc2[nH]c([C@@H]3CCCN3C(=O)c3nc(C)ccc3-n3nccn3)nc12 [Ex. 1.175]	76 nM	528 nM
CO[C@@H]1C[C@@H](c2nc3ccc(Cl)c(C)c3[nH]2)N(C(=O)c2ccccc2-c2ccccc2)C1 [Ex. 3.39]	57 nM	74 nM
C[C@@]1(c2nc3c(F)c(F)ccc3[nH]2)CCCN1C(=O)c1cc(Cl)ccc1-n1nccn1 [Ex. 5.200]	517 nM	115 nM
C=C1C[C@@H](c2nc3cc(Cl)c(C(F)(F)F)cc3[nH]2)N(C(=O)c2cc(C)ccc2-n2nccn2)C1 [Ex. 6.67]	5 nM	9 nM
CO[C@@H]1C[C@@H](c2nc3c(C)c(Cl)ccc3[nH]2)N(C(=O)c2cc(C)ccc2-n2nccn2)C1 [Ex. 3.2]	6 nM	13 nM
C=C1CN(C(=O)c2nc(C)sc2-c2cccc(C)c2)C(C)(c2nc3cc(OC)ccc3[nH]2)C1 (stereo not shown) [Ex. 6.143]	32 nM	13 nM
Cc1cc2[nH]c([C@@H]3[C@@H](C)CCN3C(=O)c3cc(F)ccc3-c3ccccn3)nc2cc1Cl [Ex. 4.106]	529 nM	23 nM
Cc1ccc(C(=O)N2CC[C@H](C)[C@H]2c2nc3cc(Cl)c(C)cc3[nH]2)c(-c2ccccn2)c1 [Ex. 4.109]	108 nM	3 nM
CSc1cccc2nc([C@@H]3CCCN3C(=O)c3cncnc3-c3ccc(Cl)c(Cl)c3)[nH]c12 [Ex. 1.82]	17 nM	13 nM
C=C1C[C@@H](c2nc3cc(C)c(C)cc3[nH]2)N(C(=O)c2nc(C)sc2-c2ccc(C)c(C)c2)C1 [Ex. 6.56]	1 nM	6 nM

Compound	IC50 (human orexin-2 receptor)	IC50 (human orexin-1 receptor)
CCn1c([C@]2(C)CCCN2C(=O)c2cc(C)ccc2-n2nccn2)nc2cc(OC)c(OC)cc21 [Ex. 7.10]	42 nM	33 nM
CSc1ccc2nc([C@@H]3CCCN3C(=O)c3cc(F)ccc3-n3nccn3)[nH]c2c1 [Ex. 1.147]	24 nM	685 nM
Cc1ccc(C(=O)N2CC[C@H](C)[C@H]2c2nc3c(C)c(Cl)ccc3[nH]2)c(-n2nccn2)c1 [Ex. 4.62]	19 nM	3 nM
C=C1CC(c2nc3cc(Cl)c(C(F)(F)F)cc3[nH]2)N(C(=O)c2cc(C)sc2-c2ccc(C)c(C)c2)C1 (stereo not shown) [Ex. 6.82]	208 nM	36 nM
Cc1ccc(-c2ccccc2)c(C(=O)N2CC[C@H](C)[C@H]2c2nc3c(C)c(Cl)ccc3[nH]2)c1F [Ex. 4.171]	571 nM	1.5 nM
Cc1nc(C(=O)N2CC[C@H](C)[C@H]2c2nc3cc(Cl)ccc3[nH]2)c(-c2cccc(Cl)c2)s1 [Ex. 4.11]	4060 nM	10 nM
Cc1ccc(-n2nccn2)c(C(=O)N2CCC[C@@]2(C)c2nc3cc(F)c(Cl)cc3[nH]2)c1 [Ex. 5.12]	134 nM	15 nM
Cc1nc(C(=O)N2CC[C@H](C)[C@H]2c2nc3c(C(F)(F)F)cccc3[nH]2)c(-c2cccc(Cl)c2)s1 [Ex. 4.19]	422 nM	2 nM
COc1ccc(-n2nccn2)c(C(=O)N2CCC[C@@]2(C)c2nc3cc(C(F)(F)F)ccc3[nH]2)c1F [Ex. 5.168]	570 nM	64 nM
COc1ccc(-n2nccn2)c(C(=O)N2CCC[C@H]2c2nc3cccc(SC)c3[nH]2)c1F [Ex. 1.168]	57 nM	20 nM
Cc1ccc(-n2cccn2)c(C(=O)N2CCC[C@@]2(C)c2nc3c(C)c(Cl)ccc3[nH]2)c1 [Ex. 5.43]	14 nM	3 nM
C=C1C[C@@H](c2nc3cc(OC)ccc3[nH]2)N(C(=O)c2ccccc2-c2nc(C)no2)C1 [Ex. 6.20]	49 nM	1750 nM
COc1ccc(-n2nccn2)c(C(=O)N2CCC[C@H]2c2nc3ccc(SC)cc3[nH]2)c1 [Ex. 1.150]	11 nM	301 nM
Cc1ccc(-n2nccn2)c(C(=O)N2CCC[C@@]2(C)c2nc3cc(SC(F)(F)F)ccc3[nH]2)c1 [Ex. 5.30]	164 nM	57 nM
COc1ccc2nc([C@@H]3CCCN3C(=O)c3cnc(C)nc3-c3ccc(Br)c(Cl)c3)[nH]c2c1 [Ex. 1.33]	48 nM	76 nM
Cc1c(Cl)ccc2[nH]c([C@@H]3[C@@H](C)CCN3C(=O)c3cc(Cl)ccc3-n3nccn3)nc12 [Ex. 4.60]	65 nM	2 nM
C[C@@]1(c2nc3cc(C(F)(F)F)c(Cl)cc3[nH]2)CCCN1C(=O)c1cc(OC(F)(F)F)ccc1-n1nccn1 [Ex. 5.147]	112 nM	27 nM
Cc1c(Cl)ccc2[nH]c([C@]3(C)CCCN3C(=O)c3nc(-c4ccccc4Cl)sc3-c3ccc(F)cc3)nc12 [Ex. 5.256]	402 nM	13 nM
Cc1ccc(-c2sc(C)nc2C(=O)N2CCC[C@@]2(C)c2nc3c(F)c(F)ccc3[nH]2)cc1 [Ex. 5.209]	101 nM	17 nM
